PubChem BioAssay AID248 (DTP/NCI, 2004)
Several values for one entry are separate records, joined by “and”; a condition that tells them apart may be missing. Equal entries are not always repeated. Inconclusive results and toxic doses are left out.

Tested on: L1210 leukemia ip in BDF1 mice, survival T/C
Assay: NCI In Vivo Anticancer Drug Screen. Data for tumor model L1210 Leukemia (intraperitoneal) in B6D2F1 (BDF1) mice
Conditions: endpoint: mean survival time, higher = longer survival
Outline: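 Each compound was tested against a transplantable tumor grown in mice. The endpoint was survival, with treated animals benchmarked against vehicle controls as a simple ratio.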

[1] = dose: 100.0 mg/kg/injection, schedule: Q01DX009 (ip), vehicle: saline with Tween-80
[2] = dose: 200.0 mg/kg/injection, schedule: Q01DX009 (ip), vehicle: saline with Tween-80
[3] = dose: 400.0 mg/kg/injection, schedule: Q01DX009 (ip), vehicle: saline with Tween-80
[4] = dose: 100.0 mg/kg/injection, schedule: Q01DX001 (ip), vehicle: saline
[5] = dose: 200.0 mg/kg/injection, schedule: Q01DX001 (ip), vehicle: saline
[6] = dose: 100.0 mg/kg/injection, schedule: Q01DX001 (ip), vehicle: carboxymethylcellulose (CMC)
[7] = dose: 200.0 mg/kg/injection, schedule: Q01DX001 (ip), vehicle: carboxymethylcellulose (CMC)

## Nc1nc2c(ncn2-c2ccc(OCCCc3ccccc3)cc2)c(=O)[nH]1
dose: 1.56 mg/kg/injection, schedule: Q01DX001 (ip), vehicle: saline with Tween-80
  T/C: 97 % of control
dose: 3.13 mg/kg/injection, schedule: Q01DX001 (ip), vehicle: saline with Tween-80
  T/C: 92 % of control
dose: 6.25 mg/kg/injection, schedule: Q01DX001 (ip), vehicle: saline with Tween-80
  T/C: 94 % of control and 87 % of control
dose: 25.0 mg/kg/injection, schedule: Q01DX001 (ip), vehicle: saline with Tween-80
  T/C: 92 % of control and 91 % of control

## Cc1ccc(CN(CCO)Cc2ccccc2)cc1
dose: 3.12 mg/kg/injection, schedule: Q01DX009 (ip), vehicle: water
  T/C: 86 % of control
dose: 6.25 mg/kg/injection, schedule: Q01DX009 (ip), vehicle: water
  T/C: 89 % of control
dose: 12.5 mg/kg/injection, schedule: Q01DX009 (ip), vehicle: water
  T/C: 93 % of control and 100 % of control
dose: 50.0 mg/kg/injection, schedule: Q01DX009 (ip), vehicle: water
  T/C: 93 % of control

## CN(C)C1C2(C)CCC(C2)C1(C)C (stereo unspecified)
dose: 5.0 mg/kg/injection, schedule: Q01DX001 (ip), vehicle: carboxymethylcellulose (CMC)
  T/C: 101 % of control
dose: 10.0 mg/kg/injection, schedule: Q01DX001 (ip), vehicle: carboxymethylcellulose (CMC)
  T/C: 98 % of control
dose: 20.0 mg/kg/injection, schedule: Q01DX001 (ip), vehicle: carboxymethylcellulose (CMC)
  T/C: 98 % of control
dose: 40.0 mg/kg/injection, schedule: Q01DX001 (ip), vehicle: carboxymethylcellulose (CMC)
  T/C: 95 % of control

## CCN(C(=O)CC(C)=O)c1ccccc1
[1]
  T/C: 91 % of control
dose: 100.0 mg/kg/injection, schedule: Q04DX003 (ip), vehicle: saline with Tween-80
  T/C: 98 % of control
[2]
  T/C: 93 % of control
dose: 200.0 mg/kg/injection, schedule: Q04DX003 (ip), vehicle: saline with Tween-80
  T/C: 98 % of control
[3]
  T/C: 94 % of control
dose: 400.0 mg/kg/injection, schedule: Q04DX003 (ip), vehicle: saline with Tween-80
  T/C: 98 % of control

## N=C(N)c1ccc(N=NNc2ccc(C(=N)N)cc2)cc1 (tested in a mixture with another compound)
[4]
  T/C: 93 % of control
[5]
  T/C: 98 % of control

## O=C(Nc1ccc(Cl)cc1)Oc1ccccn1
[1]
  T/C: 93 % of control
[2]
  T/C: 91 % of control
[3]
  T/C: 91 % of control

## O=c1cc(CC(O)(c2ccccc2)c2ccccc2)cc[nH]1
[4]
  T/C: 100 % of control
[5]
  T/C: 95 % of control
dose: 400.0 mg/kg/injection, schedule: Q01DX001 (ip), vehicle: saline
  T/C: 100 % of control

## COc1c(C(C)(C)C)cc(/C=C(\NC(=O)c2ccccc2)C(=O)O)cc1C(C)(C)C
dose: 100.0 mg/kg/injection, schedule: Q01DX001 (ip), vehicle: Klucel (hydroxypropylcellulose) (HPC)
  T/C: 98 % of control
dose: 200.0 mg/kg/injection, schedule: Q01DX001 (ip), vehicle: Klucel (hydroxypropylcellulose) (HPC)
  T/C: 92 % of control

## C[n+]1ccc2cc(N)c3c4ccccc4sc3c2c1
dose: 1.56 mg/kg/injection, schedule: Q01DX009 (ip), vehicle: saline with Tween-80
  T/C: 110 % of control
dose: 3.12 mg/kg/injection, schedule: Q01DX009 (ip), vehicle: saline with Tween-80
  T/C: 100 % of control
dose: 6.25 mg/kg/injection, schedule: Q01DX009 (ip), vehicle: saline with Tween-80
  T/C: 105 % of control
dose: 12.5 mg/kg/injection, schedule: Q04DX003 (ip), vehicle: saline with Tween-80
  T/C: 105 % of control
dose: 25.0 mg/kg/injection, schedule: Q04DX003 (ip), vehicle: saline with Tween-80
  T/C: 105 % of control
dose: 50.0 mg/kg/injection, schedule: Q04DX003 (ip), vehicle: saline with Tween-80
  T/C: 115 % of control

## CC(=O)Nc1cc2c(cc1Br)-c1ccccc1C2O (stereo unspecified)
[6]
  T/C: 98 % of control
dose: 110.0 mg/kg/injection, schedule: Q01DX Z (ip), vehicle: other
  T/C: 98 % of control
dose: 166.0 mg/kg/injection, schedule: Q01DX Z (ip), vehicle: other
  T/C: 101 % of control
[7]
  T/C: 97 % of control
dose: 250.0 mg/kg/injection, schedule: Q01DX Z (ip), vehicle: other
  T/C: 98 % of control
dose: 296.0 mg/kg/injection, schedule: Q01DX Z (ip), vehicle: saline
  T/C: 103 % of control
dose: 444.0 mg/kg/injection, schedule: Q01DX Z (ip), vehicle: saline
  T/C: 105 % of control
dose: 560.0 mg/kg/injection, schedule: Q01DX Z (ip), vehicle: other
  T/C: 103 % of control
dose: 666.0 mg/kg/injection, schedule: Q01DX Z (ip), vehicle: saline
  T/C: 106 % of control

## CN(C)CCC(O)(c1ccccc1)c1ccccc1Cl (stereo unspecified)
[6]
  T/C: 90 % of control
[7]
  T/C: 97 % of control
dose: 400.0 mg/kg/injection, schedule: Q01DX001 (ip), vehicle: carboxymethylcellulose (CMC)
  T/C: 94 % of control

## CSC(C)(S(C)(=O)=O)S(C)(=O)=O
dose: 75.0 mg/kg/injection, schedule: Q01DX001 (ip), vehicle: saline with Tween-80
  T/C: 102 % of control
dose: 150.0 mg/kg/injection, schedule: Q01DX001 (ip), vehicle: saline with Tween-80
  T/C: 96 % of control
dose: 300.0 mg/kg/injection, schedule: Q01DX001 (ip), vehicle: saline with Tween-80
  T/C: 98 % of control

## O=C(CCC(=O)Nc1ccc(C2=NCCN2)cc1)Nc1ccc(C2=NCCN2)cc1
dose: 2.0 mg/kg/injection, schedule: Q01DX Z (ip), vehicle: carboxymethylcellulose (CMC)
  T/C: 100 % of control
dose: 3.0 mg/kg/injection, schedule: Q01DX Z (ip), vehicle: carboxymethylcellulose (CMC)
  T/C: 105 % of control
dose: 4.0 mg/kg/injection, schedule: Q01DX Z (ip), vehicle: carboxymethylcellulose (CMC)
  T/C: 114 % of control
dose: 6.0 mg/kg/injection, schedule: Q01DX Z (ip), vehicle: carboxymethylcellulose (CMC)
  T/C: 107 % of control
dose: 12.0 mg/kg/injection, schedule: Q01DX Z (ip), vehicle: carboxymethylcellulose (CMC)
  T/C: 173 % of control
dose: 16.0 mg/kg/injection, schedule: Q01DX Z (ip), vehicle: carboxymethylcellulose (CMC)
  T/C: 218 % of control and 234 % of control
dose: 24.0 mg/kg/injection, schedule: Q01DX Z (ip), vehicle: carboxymethylcellulose (CMC)
  T/C: 216 % of control
dose: 38.0 mg/kg/injection, schedule: Q01DX001 (ip), vehicle: carboxymethylcellulose (CMC)
  T/C: 120 % of control
dose: 38.0 mg/kg/injection, schedule: Q01DX001 (ip), vehicle: other
  T/C: 117 % of control
dose: 56.0 mg/kg/injection, schedule: Q01DX001 (ip), vehicle: carboxymethylcellulose (CMC)
  T/C: 120 % of control
dose: 56.0 mg/kg/injection, schedule: Q01DX001 (ip), vehicle: other
  T/C: 119 % of control
dose: 62.0 mg/kg/injection, schedule: Q01DX Z (oral), vehicle: carboxymethylcellulose (CMC)
  T/C: 104 % of control
dose: 64.0 mg/kg/injection, schedule: Q01DX Z (ip), vehicle: carboxymethylcellulose (CMC)
  T/C: 113 % of control
dose: 125.0 mg/kg/injection, schedule: Q01DX Z (oral), vehicle: carboxymethylcellulose (CMC)
  T/C: 104 % of control
dose: 128.0 mg/kg/injection, schedule: Q01DX001 (ip), vehicle: carboxymethylcellulose (CMC)
  T/C: 183 % of control
dose: 250.0 mg/kg/injection, schedule: Q01DX Z (oral), vehicle: carboxymethylcellulose (CMC)
  T/C: 110 % of control
dose: 500.0 mg/kg/injection, schedule: Q01DX Z (oral), vehicle: carboxymethylcellulose (CMC)
  T/C: 177 % of control

## CN=C(Nc1ccccc1)SC
dose: 25.0 mg/kg/injection, schedule: Q01DX009 (ip), vehicle: saline
  T/C: 92 % of control
dose: 25.0 mg/kg/injection, schedule: Q04DX003 (ip), vehicle: saline
  T/C: 94 % of control
dose: 50.0 mg/kg/injection, schedule: Q01DX009 (ip), vehicle: saline
  T/C: 105 % of control
dose: 50.0 mg/kg/injection, schedule: Q04DX003 (ip), vehicle: saline
  T/C: 97 % of control
[4]
  T/C: 104 % of control
dose: 100.0 mg/kg/injection, schedule: Q01DX009 (ip), vehicle: saline
  T/C: 105 % of control
dose: 100.0 mg/kg/injection, schedule: Q04DX003 (ip), vehicle: saline
  T/C: 97 % of control

## NC(=O)c1nn(C2OC(CO)C(O)C2O)c2ncnc(N)c12 (stereo unspecified)
dose: 50.0 mg/kg/injection, schedule: Q01DX005 (ip), vehicle: saline
  T/C: 236 % of control
dose: 100.0 mg/kg/injection, schedule: Q01DX005 (ip), vehicle: saline
  T/C: 258 % of control
dose: 200.0 mg/kg/injection, schedule: Q01DX005 (ip), vehicle: saline
  T/C: 236 % of control
